Data: patent US20130217761A1 (Laboratorio Catarinense S/A, priority 2009, published 2013)

Key:
isolated rabbit heart [1] = assay: reversal of sustained electrically induced ventricular fibrillation, isolated rabbit heart (Langendorff preparation); settings: added to perfusate
Experimental: The thorax was rapidly opened by middle-sized incision, and the sternum beaten back for complete exposure of the inside of the thorax. […] A metallic cannula was then inserted and fixed to the proximal portion of the aorta, retrograde perfusion of oxygenated Krebs-Henseleit solution was initiated and heated up to 37° C. with constant flow of 13 mL/minute, kept by a continuous-infusion pump, Harvard Apparatus model RS232. The cannula tip was positioned quite close to the aortic valve to permit adequate coronary perfusion.
The heart was then removed and suspended through the cannula in a classic Langenhorff preparation. The Krebs Henseleit composition used was: 115 mM NaCl; 5.4 mM KCL; 1.25 mM CaCl2; 25 mM NaHCO3; 1.2 mM MgSO4; 1.5 mM NaH2PO4 and 11 nM glucose. […]

isolated rabbit heart [2] = assay: re-induction of ventricular fibrillation after reversal (protective effect), isolated rabbit heart; settings: new attempt to induce ventricular fibrillation 5 minutes after reversal
Experimental: In order to carry out the experiments, twenty-seven male and female white New Zealand rabbits, weighing 2.5-3.5 kg, received 100 Ul/kg of intravenous heparin and were killed by cervical displacement.
The thorax was rapidly opened by middle-sized incision, and the sternum beaten back for complete exposure of the inside of the thorax. The pericardium was removed and the rising part of the aorta was isolated and repaired with a cotton thread 3-0. A metallic cannula was then inserted and fixed to the proximal portion of the aorta, retrograde perfusion of oxygenated Krebs-Henseleit solution was initiated and heated up to 37° C. with constant flow of 13 mL/minute, kept by a continuous-infusion pump, Harvard Apparatus model RS232. The cannula tip was positioned quite close to the aortic valve to permit adequate coronary perfusion.
The heart was then removed and suspended through the cannula in a classic Langenhorff preparation. […]
Two pairs of electrodes (Monicron 2-O) were saturated on the LV: one at the tip, called proximal (P) and the other at the branching of front descending coronary artery branching with the first diagonal, called distal (D). […] The cardiac frequency was determined by measuring the interval between two consecutive electrograms and transformed into beats per minute (bpm). […]

In the case of CCCCc1oc2ccccc2c1C(=O)c1cc(I)c(OCCN(CC)CC)c(I)c1 [amiodarone], the “reversal of sustained ventricular fibrillation (in words)” value (isolated rabbit heart [1]) is reported as “do not have any effect”.

CCN(CC)CC(=O)Nc1c(C)cccc1C [lidocain] was tested, and the “prevention of re-induction of ventricular fibrillation by electric stimulus” value (isolated rabbit heart [2]) was “does not prevent the reinduction”.

In the case of CC(C)NCC(O)COc1cccc2ccccc12 (stereo not drawn) [propranolol], the “reversal of sustained ventricular fibrillation (in words)” value (isolated rabbit heart [1]) is reported as “do not have any effect”.
